Measured values taken from patent US5859007A, “CCK or gastrin modulating benzo [b][1,4] diazepines derivatives” (Glaxo Wellcome Inc., priority 1994, dated 1999).

System: isolated guinea pig gallbladder
Assay: Functional activity in isolated guinea pig gallbladder preparation
Assay type: cell-based
Conditions: Cavia porcellus, expressed as % CCK-induced maximal response; for activation at 30 µM: 3 × 10^-5 M test compound, read-out: % Contraction (3 × 10^-5 M); for activation at 1 µM: 1 × 10^-6 M test compound, read-out: %Contraction (1 × 10^-6 M)
Method: 3. GUINEA PIG GALL BLADDER ASSAY
Gallbladders are removed from guinea pigs sacrificed by cervical dislocation. The isolated gallbladders are cleaned of adherent connective tissue and cut into two rings from each animal (2-4 mm in length). The rings are subsequently suspended in organ chambers containing a physiological salt solution (118.4 mM NaCl, 4.7 mM KCl, 1.2 mM MgSO4, 2.5 mM CaCl2, 1.2 mM KH2 […], 25 mM NaHCO3, 11.1 mM dextrose). The bathing solution is maintained at 37° C. and aerated with 95% O2 /5% CO2. Tissues are connected via gold chains and stainless steel mounting wires to isometric force displacement transducers (Grass, Model FT03 D). Responses are then recorded on a polygraph (Grass, Model 7E).
Rings are gradually stretched (over a 120 min. period) to a basal resting tension of 1 gm which is maintained throughout the experiment. During the basal tension adjustment period, the rings are exposed to acetylcholine (10^-6 M) four times to verify tissue contractility. The tissues are then exposed to a submaximal dose of sulfated CCK-8 (Sigma, 3×10^-9 M). After obtaining a stable response, the tissues are washed out 3 times rapidly and every 5 to 10 minutes for 1 hour to reestablish a stable baseline.
Compounds are dissolved in dimethylsulfoxide ([…]) followed by a concentration-response curve to sulfated CCK-8 (10^-10 to 10^-6 M) in the presence of the highest dose of the test compound. As a final test, ACH (10 mM) is added to induce maximal contraction. A minimum of three determinations of activity are made for each test compound.

For `COc1ccc(N(C(=O)CN2C(=O)C(Cc3n[nH]c4ccccc34)(OC)C(=O)N(c3ccccc3)c3ccccc32)C(C)C)cc1` (stereo not shown) [Example 43, 2-[3-(1H-Indazol-3-ylmethyl)-3-methoxy-2,4-dioxo-5-phenyl-2,3,4,5-tetrahydro-benzo[b][1,4]diazepin-1-yl]-N-isopropyl-N-(4-methoxy-phenyl) acetamide], the activation at 30 µM was 61%.

`COc1ccc(N(C(=O)CN2C(=O)C(Cc3nn(C)c4ccccc34)C(=O)N(c3ccccc3)c3ccccc32)C(C)C)cc1` (stereo not shown) [Example 44, N-Isopropyl-N-(4-methoxy-phenyl)-2-[3-(1-methyl-1H-indazol-3-ylmethyl)-2,4-dioxo-5-phenyl-2,3,4,5-tetrahydro-benzo[b][1,4]diazepin-1-yl]acetamide] showed an activation at 1 µM of 57% and an activation at 30 µM of 83%.

Compound `COc1ccc(N(C(=O)CN2C(=O)C(C)(Cc3nn(C)c4ccccc34)C(=O)N(c3ccccc3)c3ccccc32)C(C)C)cc1` (stereo not shown) [Example 45, N-Isopropyl-N-(4-methoxy-phenyl)-2-[3-(1-methyl-1H-indazol-3-ylmethyl)-3-methyl-2,4-dioxo-5-phenyl-2,3,4,5-tetrahydro-benzo[b][1,4]diazepin-1-yl]acetamide] has an activation at 1 µM of 57%.

Compound `COc1ccc(N(C(=O)CN2C(=O)C(Cc3nccn3-c3ccccc3)C(=O)N(c3ccccc3)c3ccccc32)C(C)C)cc1` (stereo not shown) [Example 46, 2-(2,4-Dioxo-5-phenyl-3-(1-phenyl-imidazo-2-yl)methyl-2,3,4,5-tetrahydro-benzo[b][1,4]diazepin-1-yl)-N-isopropyl-N-(4-methoxy)-phenyl acetamide] has an activation at 1 µM of 6% and an activation at 30 µM of 6%.

In the case of `COc1ccc(N(C(=O)CN2C(=O)C(Cc3noc4ccccc34)C(=O)N(c3ccccc3)c3ccccc32)C(C)C)cc1` (stereo not shown) [Example 47, 2-(3-Benzo[d]isoxazol-3-ylmethyl-2,4-dioxo-5-phenyl-2,3,4,5-tetrahydro-benzo[b][1,4]diazepin-1-yl)-N-isopropyl-N-(4-methoxy-phenyl) acetamide], the activation at 1 µM is reported as 92%.

`COc1ccc(N(C(=O)CN2C(=O)C(Cc3noc4ncccc34)C(=O)N(c3ccccc3)c3ccccc32)C(C)C)cc1` (stereo not shown) [Example 48, N-Isopropyl-2-(3-isoxazolo[5,4-b]pyridin-3-ylmethyl-2,4-dioxo-5-phenyl-2,3,4,5-tetrahydro-benzo[b][1,4]diazepin-1-yl)-N-(4-methoxy-phenyl) acetamide] was tested, and the activation at 30 µM was 75%.

In the case of `COc1ccc(N(C(=O)CN2C(=O)C(Cc3n[nH]c4ncccc34)C(=O)N(c3ccccc3)c3ccccc32)C(C)C)cc1` (stereo not shown) [Example 50, 2-[2,4-Dioxo-5-phenyl-3-(1H-pyrazolo[3,4-b]pyridin-3-ylmethyl)-2,3,4,5-tetrahydro-benzo[b][1,4]diazepin-1-yl]-N-isopropyl-N-(4-methoxy-phenyl)-acetamide], the activation at 1 µM is reported as 83% and the activation at 30 µM is reported as 94%.

With `COc1ccc(N(C(=O)CN2C(=O)C(Cc3n[nH]c4c3CCCC4)C(=O)N(c3ccccc3)c3ccccc32)C(C)C)cc1` (stereo not shown) [Example 51, 2-[2,4-Dioxo-5-phenyl-3-(4,5,6,7-tetrahydro-1H-indazol-3-ylmethyl)-2,3,4,5-tetrahydro-benzo[b][1,4]diazepin-1-yl]-N-isopropyl-N-(4-methoxy-phenyl)-acetamide] the activation at 1 µM was 82% and the activation at 30 µM was 83%.

`CC(C)N(C(=O)CN1C(=O)C(Cc2n[nH]c3ccccc23)C(=O)N(c2ccccc2)c2ccccc21)c1ccc(C(F)(F)F)cc1` (stereo not shown) [Example 52, 2-[3-(1H-Indazol-3-ylmethyl)-2,4-dioxo-5-phenyl-2,3,4,5-tetrahydro-benzo[b][1,4]diazepin-1-yl]-N-isopropyl-N-(4-trifluoromethyl-phenyl)-acetamide] gave an activation at 1 µM of 70% and an activation at 30 µM of 96%.

Compound `COc1ccc(N(C(=O)CN2C(=O)C(Cc3n[nH]c4ccccc34)(OC)C(=O)N(c3cccnc3)c3ccccc32)C(C)C)cc1` (stereo not shown) [Example 53, 2-[3-(1H-Indazol-3-ylmethyl)-3-methoxy-2,4-dioxo-5-pyridin-3-yl-2,3,4,5-tetrahydro-benzo[b][1,4]diazepin-1-yl]-N-isopropyl-N-(4-methoxy-phenyl)-acetamide] has an activation at 1 µM of 96% and an activation at 30 µM of 103%.

In the case of `COc1ccc(N(C(=O)CN2C(=O)C(Cc3cc(C)nn3Cc3ccccc3)C(=O)N(c3ccccc3)c3ccccc32)C(C)C)cc1` (stereo not shown) [Example 54, 2-[3-(2-Benzyl-5-methyl-2H-pyrazol-3ylmethyl)-2,4-dioxo-5-phenyl-2,3,4,5-tetrahydro-benzo[b][1,4]diazepin-1-yl]-N-isopropyl-N-(4-methoxy-phenyl)-acetamide], the activation at 1 µM is reported as 63% and the activation at 30 µM is reported as 43%.

With `COc1ccc(N(C(=O)CN2C(=O)C(Cc3cc(C)n[nH]3)C(=O)N(c3ccccc3)c3ccccc32)C(C)C)cc1` (stereo not shown) [Example 55, N-Isopropyl-N-(4-methoxy-phenyl)-2-[3-(5-methyl-2H-pyrazol-3ylmethyl)-2,4-dioxo-5-phenyl-2,3,4,5-tetrahydro-benzo[b][1,4]diazepin-1-yl]-acetamide] the activation at 1 µM was 21%.

`COc1ccc(N(C(=O)CN2C(=O)C(Cn3cnc4ccccc43)C(=O)N(c3ccccc3)c3ccccc32)C(C)C)cc1` (stereo not shown) [Example 56, 2-(3-Benzoimidazol-1-ylmethyl-2,4-dioxo-5-phenyl-2,3,4,5-tetrahydro-benzo[b][1,4]diazepin-1-yl]-N-isopropyl-N-(4-methoxy-phenyl)-acetamide] showed an activation at 1 µM of 90% and an activation at 30 µM of 98%.

`CC(C)N(C(=O)CN1C(=O)C(Cc2n[nH]c3ccccc23)C(=O)N(c2ccccc2)c2ccccc21)c1ccc(F)cc1` (stereo not shown) [Example 57, N-(4-Fluoro-phenyl)-2-[3-(1H-indazol-3-ylmethyl)-2,4-dioxo-5-phenyl-2,3,4,5-tetrahydro-benzo[b][1,4]diazepin-1-yl]-N-isopropyl-acetamide] showed an activation at 1 µM of 99% and an activation at 30 µM of 134%.

Compound `COc1ccc(N(C(=O)CN2C(=O)C(Cc3n[nH]c4ccccc34)C(=O)N(c3ccsc3)c3ccccc32)C(C)C)cc1` (stereo not shown) [Example 58, 2-[3-(1H-Indazol-3-ylmethyl)-2,4-dioxo-5-thiophen-3-yl-2,3,4,5-tetrahydro-benzo[b][1,4]diazepin-1-yl]-N-isopropyl-N-(4-methoxy-phenyl)-acetamide] has an activation at 1 µM of 80% and an activation at 30 µM of 95%.

Compound `COc1ccc(N(C(=O)CN2C(=O)C(Cc3n[nH]c4ccccc34)C(=O)N(c3cccs3)c3ccccc32)C(C)C)cc1` (stereo not shown) [Example 59, 2-[3-(1H-Indazol-3-ylmethyl)-2,4-dioxo-5-thiophen-2-yl-2,3,4,5-tetrahydro-benzo[b][1,4]diazepin-1-yl]-N-isopropyl-N-(4-methoxy-phenyl)-acetamide] has an activation at 1 µM of 100% and an activation at 30 µM of 102%.

In the case of `Cc1ccc(N(C(=O)CN2C(=O)C(Cc3n[nH]c4cc(F)ccc34)C(=O)N(c3ccccc3)c3ccccc32)C(C)C)cc1` (stereo not shown) [Example 60, 2-[3-(6-Fluoro-1H-indazol-3-ylmethyl)-2,4-dioxo-5-phenyl-2,3,4,5,tetrahydro-benzo[b][1,4]diazepin-1-yl]-N-isopropyl-N-p-tolyl-acetamide], the activation at 1 µM is reported as 94% and the activation at 30 µM is reported as 81%.

`O=C1C(Cc2n[nH]c3ccccc23)C(=O)N(c2ccccc2)c2ccccc2N1CC(=O)N(c1ccccc1)C1CC1` (stereo not shown) [Example 61, N-Cyclopropyl-2-[3-(1H-indazol-3-ylmethyl)-2,4-dioxo-5-phenyl-2,3,4,5,tetrahydro-benzo[b][1,4]diazepin-1-yl]-N-phenyl-acetamide] showed an activation at 1 µM of 63% and an activation at 30 µM of 77%.
